The values below come from US10463610B2, “Composition comprising diacid derivatives and their use in the treatment of collagenic eye disorders” (THE UNIVERSITY OF LIVERPOOL, priority 2015, dated 2019).

For this assay, the system named is pig corneas. Description: Tensile test (stiffness) of pig corneas after treating whole eye globes with cross-linking solution. To be noted: Experiment 1: diacid/NHS/EDCI solution in PBS with excess EDCI, 30 minutes incubation at 37° C., n=3 (FIG. 1). The text has this:
Pig eyes were collected from the abattoir on the day of slaughter. They were brought to the laboratory and any remaining soft tissue was carefully dissected away leaving just globe and the small section of optic nerve. These were washed 3 times in PBS. A drop of fluorescein dye (1% diluted 1:10 in PBS) was applied to the cornea of each eye to evaluate the integrity of the corneal epithelium (as used in the clinic). The globes were then washed again in PBS 3 times.
The globes were mounted individually on Perspex rings and placed corneal side down in 6-well cell culture plates. This ensured that the eyes were balanced stably and that the corneal surface was exposed in a controlled manner to the cross-linking solution.
Dissolve 575 mg of NHS and 775 mg of EDCI in 22.5 ml of PBS. Dissolve 500 mg Sebacic acid (decanedioic acid) or 435 mg of Suberic acid (octanedioic acid) or 365 mg of Adipic acid (hexanedioic acid) in 2.5 ml of PBS. Add each diacid solution to 22.5 ml of NHS/EDCI solution.
Experiments 2 and 3 used a Molar ratio of […] of suberic:NHS:EDCI using 319 mg NHS, 430 mg EDCI and 241 mg suberic acid. NHS/EDCI dissolved first in 7.5 ml PBS and suberic acid dissolved in 7.5 ml PBS with the addition of 500 ul DMAE to aid solubility. The two solution were added to each other and made up to 15 ml if necessary.
Add diacid/NHS/EDCI solution (4-5 ml) to 3 eyes for each diacid and add PBS (4-5 ml) to 3 eyes as control. Incubate for 30 minutes at 37° C. After 30 minutes, wash off solution with PBS (5 times).
Add suberic acid/NHS/EDCI solution (4-5 ml) to 3 eyes and add PBS (4-5 ml) to 3 eyes as control. […]
Since the cross-linking chemistry is based on EDCI/NHS mediated chemistry, the individual active moieties being used (EDCI and NHS) in the treatment solution are chemically able to crosslink proteins. The ability at which the individual chemicals are able to increase the biomechanical property of the cornea was assessed. Corneas were prepared, the masses of all the chemicals were measured out, and the corneas were treated as described above. […]
In the case of `O=C(O)CCCCCCCCC(=O)O` [Sebacic acid, decanedioic acid], the “increase in stiffness compared to the untreated control corneas” value came out at 54.8%.
For `O=C(O)CCCCC(=O)O` [adipic acid, hexanedioic acid] the value was 63.6%; for `O=C(O)CCCCCCC(=O)O` [suberic acid, octanedioic acid], 84.9%.
